In assay [1] the test system is Mus musculus. Kind of assay: Antinociceptive activity in sc dosed mouse. Type of assay: functional.
Assay [2] concerns the target Mu-type opioid receptor (Homo sapiens) (UniProt P35372). Particulars: CHO.
Description: Antagonist activity at human mu receptor expressed in CHO cells membrane assessed as inhibition of DAMGO-induced [35S]GTPgammaS binding after 3 hrs by liquid scintillation counting

In ChEMBL document CHEMBL1949670, “Probes for narcotic receptor mediated phenomena. 44. Synthesis of an N-substituted 4-hydroxy-5-(3-hydroxyphenyl)morphan with high affinity and selective μ-antagonist activity” (Eur J Med Chem, 2012) one finds ED50 and Ke data, which are given here for 5 compounds.

Each structure is given as a SMILES string.

Mu-type opioid receptor (Homo sapiens), sequence (P35372 whole entry): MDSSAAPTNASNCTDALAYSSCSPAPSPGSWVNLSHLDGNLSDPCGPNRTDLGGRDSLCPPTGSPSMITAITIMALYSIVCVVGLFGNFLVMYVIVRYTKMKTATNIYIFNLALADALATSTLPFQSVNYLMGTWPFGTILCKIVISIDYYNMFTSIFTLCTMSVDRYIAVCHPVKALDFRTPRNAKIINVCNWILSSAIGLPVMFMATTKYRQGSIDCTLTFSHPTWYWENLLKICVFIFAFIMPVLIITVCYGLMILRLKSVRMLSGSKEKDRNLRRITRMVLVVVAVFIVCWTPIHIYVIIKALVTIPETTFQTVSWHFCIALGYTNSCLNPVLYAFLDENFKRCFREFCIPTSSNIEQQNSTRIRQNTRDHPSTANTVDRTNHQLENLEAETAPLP

As to `CN1CC[C@]23c4c5ccc(O)c4O[C@H]2[C@@H](O)C=C[C@@]3(O)[C@H]1C5`, the ED50 in assay [1] is 2.9 mg/kg. Turning to `CN1CC2(OCCO2)[C@]2(c3cccc(O)c3)CCC[C@H]1C2` (racemic), in assay [2], the ED50 worked out at 89 nM and the Ke amounted to 154 nM.

In assay [2], `Oc1cccc([C@@]23CCC[C@@H](C2)N(CCc2ccccc2)C[C@H]3O)c1` (racemic) had a Ke of 12 nM.

`CN1CC[C@]23c4c5ccc(O)c4O[C@H]2[C@@H](O)CC[C@H]3[C@H]1C5` [DIHYDROMORPHINE] had an ED50 in assay [1] of 1.8 mg/kg.

Compound `CN1CC[C@]23c4c5ccc(O)c4O[C@H]2[C@@H](O)CC[C@@]3(O)[C@H]1C5` [HYDROMORPHINOL] had an ED50 in assay [1] of 1.1 mg/kg.
